The values below come from patent publication US5739112A, “Inhibitors of factor Xa” (Corvas International, Inc., priority 1995, dated 1998).

The target in assay [1] is T1, Human factor Xa (Homo sapiens, UniProt P00742).
T1 construct: Human factor X contains a light-chain subunit containing 139 amino acid residues; purchased Enzyme Research Laboratories
As to conditions: Hitomi et al., p. 166; read-out: inhibitor constant, human factor Xa; cited from earlier work.

For assay [2], the target named is T2, human thrombin (Homo sapiens, UniProt P00734). As to conditions: Hitomi et al., p. 166; read-out: inhibitor constant, human thrombin; cited from earlier work.
Assay [3] addresses T1, Human factor Xa. In words: Factor Xa assay (chromogenic substrate S-2765). It counts as biochemical. As to the method: (§1) To assay their activities, the compounds of the present invention are dissolved in buffer to give solutions containing concentrations ranging under assay concentrations from 0 to about 100 μM. The enzyme to be tested is then added to a solution containing a specified concentration of the test compound. Then after an incubation period, synthetic substrate for the enzyme being tested is added. The rate of substrate turnover is determined spectrophotometrically. The IC50 of the test compound is determined for each test compound in assays for factor Xa, factor XIa, thrombin and tPA. IC50 is that concentration of test compound giving 50% inhibition of the substrate turnover. Percent selectivity is used to indicate selectivity of a compound in inhibiting Factor Xa in comparison with either Factor XIa, thrombin or tPA. Percent selectivity of a particular compound for either Factor XIa, thrombin or tPA refers to a number obtained by dividing the product of one hundred and the IC50 of the compound for Factor Xa by the IC50 of the compound for either Factor XIa, thrombin or tPA.
(§2) The specificity of the peptide aldehydes through was determined by measurement of their IC50 against factor Xa, factor XIa, thrombin and tissue plasminogen activator (tPA). Peptide aldehyde which has been described in the art was run as a comparison. A specific concentration of enzyme and its substrate were challenged with varying concentrations: of inhibitor. IC50 is that concentration of inhibitor giving 50% inhibition of catalytic activity, under the assay conditions Specific assay procedures used are presented below.
Enzyme activity was determined using as substrate, S2765 (N-a-benzyloxycarbonyl-D-argininyl-L-glycyl-L-arginine-p-nitroanilide dihydrochloride) which was obtained from Kabi Diagnostica. The substrate was made up in deionized water prior to use.
Human factor Xa was obtained from Enzyme Research Laboratories. The enzyme was diluted into TBSA prior to use.
The assay was run by combining in appropriate wells 50 μL of TBSA, 50 μL of inhibitor in TBSA or TBSA (as negative control) and 50 μL of 2 nM human Factor Xa or TBSA (as background control). After incubating this mixture for 60 minutes at room temperature, 50 μL of 1 mM S-2765 was added to each well and the initial rate of the change of the optical density at 405 nm (OD405 nm) for each well was determined. OD405 nm was measured every 10 seconds for 5 minutes.

Assay [4] concerns the target T3, Human factor XIa (Homo sapiens, UniProt P03951).
T3 construct: purchased Enzyme Research Laboratories, Inc
In words: Factor XIa assay (chromogenic substrate S-2366). Format: biochemical. As to the method: as §1, §2
Enzyme activity was determined using as substrate, S2366 (L-pyroglutamyl-L-prolyl-L-arginine-p-nitroanilide hydrochloride) which was obtained from Kabi Diagnostica. The substrate was made up in deionized water prior to use.
Human factor XIa was obtained from Enzyme Research Laboratories, Inc. The enzyme was diluted into TBSA prior to use.
The assay was run by combining in appropriate wells 50 μL of TBSA, 50 μL of inhibitor in TBSA or TBSA (as negative control) and 50 μL of 2 nM human Factor Xia or TBSA (as background control). After incubating this mixture for 60 minutes at room temperature, 50 μL of 6 mM S-2366 was added to each well and the initial rate of the change of the optical density at 405 nm (OD405 nm) for each well was determined. OD405 nm was measured every 10 seconds for 5 minutes.

In another assay the target is T4, Human α-thrombin (Homo sapiens, UniProt P00734).
T4 construct: purchased Enzyme Research Laboratories, Inc
In words: Thrombin assay (chromogenic substrate S-2238). It counts as biochemical. As to the method:
as §1, §2
Enzyme activity was determined using as substrate, S2238 (D-phenylalanyl-L-pipecolyl-L-arginine-p-nitroanilide dihydrochloride) which was obtained from Kabi Diagnostica. The substrate was made up in deionized water prior to use.
Human α-thrombin was obtained from Enzyme Research Laboratories, Inc. The enzyme was diluted into TBSA prior to use.
The assay was run by combining in appropriate wells 50 μL of TBSA, 50 μL of inhibitor in TBSA or TBSA (as negative control) and 50 μL of 4 nM human α-thrombin or TBSA (as background control). After incubating this mixture for 60 minutes at room temperature, 50 μL of 0.24 mM S-2238 was added to each well and the initial rate of the change of optical density at 405 nm (OD405 nm) for each well was determined. OD405 nm was measured every 10 seconds for 5 minutes.

Assay [5] deals with T5, Human recombinant t-PA (Activase) (Homo sapiens, UniProt P00750).
T5 construct: purchased Genentech, Inc. Activase
In words: tPA assay (substrate Pefachrome tPA). Format: biochemical. As to the method:
as §1, §2
Enzyme activity was determined using as substrate, Pefachrome tPA (O-methylsulfonate-D-hexahydrotyrosine-L-glycyl-L-argini ne-p-nit roanilide acetate salt) which was obtained from Centerchem, Inc. The substrate was made up in deionized water prior to use.
Human recombinant t-PA (Activase®) was obtained. from Genentech, Inc. The enzyme was reconstituted with water, then diluted into TBSA prior to use.
The assay was run by combining in appropriate wells 50 μL of TBSA, 50 μL of inhibitor in TBSA or TBSA (as negative control) and 50 μL of 4 nM human recombinant tPA or TBSA (as background control). After incubating this mixture for 60 minutes at room temperature, 50 μL of 4 mM Pefachrome tPA was added to each well and the initial rate of the change of optical density at 405 nm (OD405 nm) for each well was determined. OD405 nm was measured every 10 seconds for 5 minutes.

The target in assay [6] is T1, Human factor Xa. To be noted: Turner et al., p. 4932; cited from earlier work.
In assay [7] the test system is Human factor XIa. As to conditions: Turner et al., p. 4932; cited from earlier work.
The target in assay [8] is T2, human thrombin. As to conditions: Turner et al., p. 4932; cited from earlier work.
Setting [9] is: 60 min preincubation at room temperature, >25 means less than 50% inhibition at 25 μM.

T1 sequence (P00742 235-488 limits assumed): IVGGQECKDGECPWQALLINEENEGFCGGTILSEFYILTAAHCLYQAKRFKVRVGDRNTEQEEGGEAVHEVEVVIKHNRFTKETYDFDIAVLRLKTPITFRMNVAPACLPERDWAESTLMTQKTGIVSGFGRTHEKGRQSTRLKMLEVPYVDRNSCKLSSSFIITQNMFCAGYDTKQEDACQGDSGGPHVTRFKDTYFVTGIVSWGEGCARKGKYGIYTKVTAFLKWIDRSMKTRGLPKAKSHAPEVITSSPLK
T1 sequence (P00742 41-179 partner limits assumed): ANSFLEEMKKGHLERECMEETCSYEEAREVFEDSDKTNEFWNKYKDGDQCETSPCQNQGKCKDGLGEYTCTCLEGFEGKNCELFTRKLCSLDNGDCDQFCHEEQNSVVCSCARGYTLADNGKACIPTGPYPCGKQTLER
T3 sequence (P03951 388-625 limits assumed): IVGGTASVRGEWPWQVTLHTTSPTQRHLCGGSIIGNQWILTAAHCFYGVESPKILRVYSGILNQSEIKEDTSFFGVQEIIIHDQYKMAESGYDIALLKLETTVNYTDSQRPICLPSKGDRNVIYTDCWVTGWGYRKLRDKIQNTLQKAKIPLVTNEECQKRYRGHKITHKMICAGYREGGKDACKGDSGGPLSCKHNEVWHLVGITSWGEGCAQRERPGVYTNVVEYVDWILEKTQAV
T3 sequence (P03951 19-387 partner limits assumed): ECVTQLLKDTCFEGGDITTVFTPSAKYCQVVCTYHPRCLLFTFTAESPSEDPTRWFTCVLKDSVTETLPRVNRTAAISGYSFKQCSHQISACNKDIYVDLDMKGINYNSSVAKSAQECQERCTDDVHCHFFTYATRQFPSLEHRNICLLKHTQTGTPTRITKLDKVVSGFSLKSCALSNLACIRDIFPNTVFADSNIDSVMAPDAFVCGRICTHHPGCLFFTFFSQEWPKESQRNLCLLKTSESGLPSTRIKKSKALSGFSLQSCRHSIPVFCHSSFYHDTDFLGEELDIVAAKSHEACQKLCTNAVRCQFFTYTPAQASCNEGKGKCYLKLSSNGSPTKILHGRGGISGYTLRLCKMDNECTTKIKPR
T5 sequence (P00750 36-562): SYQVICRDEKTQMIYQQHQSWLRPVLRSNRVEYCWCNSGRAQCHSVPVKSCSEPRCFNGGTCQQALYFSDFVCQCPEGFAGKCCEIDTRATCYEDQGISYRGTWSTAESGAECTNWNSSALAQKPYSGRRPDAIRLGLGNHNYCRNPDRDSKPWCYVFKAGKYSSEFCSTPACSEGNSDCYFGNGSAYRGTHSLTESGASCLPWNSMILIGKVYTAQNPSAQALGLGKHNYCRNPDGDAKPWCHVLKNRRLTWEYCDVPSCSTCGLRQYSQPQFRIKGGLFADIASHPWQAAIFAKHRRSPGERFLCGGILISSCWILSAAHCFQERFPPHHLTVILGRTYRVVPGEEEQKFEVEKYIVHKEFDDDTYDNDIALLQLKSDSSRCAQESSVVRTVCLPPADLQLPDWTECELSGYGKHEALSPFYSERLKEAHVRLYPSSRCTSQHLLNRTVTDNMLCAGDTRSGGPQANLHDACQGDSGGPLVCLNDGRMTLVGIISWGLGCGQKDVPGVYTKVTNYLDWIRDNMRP

Take `N=C(N)c1ccc2cc(OC(=O)c3ccc(N=C(N)N)cc3)ccc2c1` [FUT-75, 6-amidino-2-naphthyl-p-guanidinobenzoate dimethanesulfonate]: the Ki is 4.1 µM at Human factor Xa [1] and 1.3 µM at human thrombin [2].

What is called IC50 is the midpoint of a concentration-inhibition curve. On to `CC(C)(C)OC(=O)N[C@H](Cc1ccccc1)C(=O)N1CCC[C@H]1C(=O)N[C@H](C=O)CCCNC(=N)N` [[23], N-Boc-D-phenylalanyl-L-prolyl-L-argininal, reference compound], for which the 50% inhibitory concentration (IC50) on Human factor Xa [3] (60 min preincubation at room temperature, TBSA pH 7.4) was found to be 5.7 µM; against Human factor XIa [4] (setting [9]), 1.8 µM; on Human α-thrombin (setting [9]), 0.025 µM; in assay [5] (setting [9]) it was 1.1 µM. The “Percent Selectivity Xa” value on Human factor Xa [3] (taken as 100 by definition) was found to be 100. The “Percent Selectivity XIa” value at Human factor XIa [4] (100 times IC50 for factor Xa divided by IC50 for factor XIa) was determined as 317. In addition, at Human α-thrombin (100 times IC50 for factor Xa divided by IC50 for thrombin), the “Percent Selectivity Thrombin” value is reported as 22,800. In addition, in assay [5] (100 times IC50 for factor Xa divided by IC50 for tPA), the “Percent Selectivity tPA” value turned out to be 518.

`CC(=Cc1ccccc1)C(=O)Oc1ccc(C(=N)N)cc1` [p-Amidinophenyl α-methylcinnamate]: at Human factor Xa [6], the “second-order rate constant of inactivation, human factor Xa” value was 1650 M⁻¹ s⁻¹. Moreover, the “second-order rate constant of inactivation, human factor XIa” value with Human factor XIa [7] is 2670 M⁻¹ s⁻¹. On human thrombin [8], the “second-order rate constant of inactivation, human thrombin” value is 2670 M⁻¹ s⁻¹.
